Assay results: US20100003217A1, “Compounds and Pharmaceutical Compositions for the Treatment of Viral Infections” (priority 2008, published 2010)

How the values were obtained:
[1] = system: Zluc cells; experiment: Cytotoxicity assay (MTS), Zluc cells; format: cell-based, human
Experimental: (§1) The cytotoxicity assay measures the viability of cells after treatment with a test compound for 3 days in either GS4.1 cells or Zluc cells. […] The cytotoxicity assay is summarized as follows. Ninety-six-well tissue culture plates were seeded with GS4.1 or Zluc cells. Antiviral compound solutions were made up freshly in medium as 2×-concentrated stocks. Eight additional 3-fold drug dilutions were prepared from these stocks in medium for a total of 9 dilutions. At least four hours after the cells were seeded, drug treatment was initiated by adding one volume of each 2×-concentrated drug dilution to one volume of cells/medium in the tissue culture plates. Cells were then incubated for 3 days at 37° C./5% CO2. After 3 days of treatment, the CellTiter 96® Aqueous One Solution cell proliferation assay (Promega) was performed by adding the MTS solution to each well. The plates were then incubated at 37° C./5% CO2 for 3.5 hours. Plates were then read in a Victor^3V 1420 multilabel counter (Perkin Elmer) and CC50 concentrations were determined using Microsoft Excel and XLfit 4.1 software.

[2] = system: HCV genotype 1b replicon (Zluc cells); experiment: HCV luciferase replicon assay; format: cell-based, hepatitis C virus; details: 3 days
Experimental: The HCV luciferase replicon assay measures the ability of a test compound to inhibit HCV replication in cell culture after 3 days of treatment in a human hepatoma cell line (Huh-7) bearing the HCV genotype 1b replicon and a luciferase-neomycin phosphotransferase fusion gene. The inhibition of HCV replication was measured by quantification of luciferase protein expression. The HCV luciferase replicon was constructed by fusing a luciferase gene to the amino terminus of the neomycin phosphotransferase gene of the ZS11 HCV replicon. The ZS11 HCV replicon (Zhu Q, Guo J-T, and Seeger C, 2003) is derived from the SP1 replicon, but contains three cell culture-adapted mutations: E1202G (NS3), S22041 (NS5A), and D2254E (NS5A). These mutations allow for efficient in vitro replication. The luciferase reporter gene was amplified from the pGL4.13[luc2/SV40] vector (Promega Corp.). The replicon resulting from the luciferase-neomycin fusion (ZS11-luc) was stably-transfected into Huh-7 cells, yielding the Zluc cell line.
(§2) The luciferase replicon assay is summarized as follows: Solid white 96-well tissue culture plates (BD Falcon) were seeded with Zluc cells. Antiviral compound solutions were made up freshly in medium as 2×-concentrated stocks. Eight additional 3-fold drug dilutions were prepared from these stocks in medium for a total of 9 dilutions. At least four hours after Zluc cells were seeded, drug treatment was initiated by adding one volume of each 2×-concentrated drug dilution to one volume of cells/medium in the tissue culture plates. Cells were then incubated for 3 days at 37° C./5% CO2.
The media/compound was then removed from the plates and the ONE-glo Luciferase assay reagent (Promega) was added to each well. The assay plates were shaken for 3 minutes at room temperature and luciferase activity for each well was measured with a 1 sec read time on the Victor^3V multilabel counter using a 700 nm cut-off filter (Perkin Elmer). EC50 values were calculated from dose response curves from the resulting best-fit equations determined by Microsoft Excel and XLfit 4.1 software.

[3] = system: GS4.1 cells; experiment: Cytotoxicity assay (MTS), GS4.1 cells; format: cell-based, human; details: 3 days (NS4A-ELISA Assay)
Experimental: as §1

[4] = system: HCV genotype 1b replicon (GS4.1 cells); experiment: HCV replicon assay (NS4A ELISA); format: cell-based, hepatitis C virus; details: 3 days
Experimental: The biological activity of Compound 1, diastereomer 1 and diastereomer 2 was measured by monitoring expression of the NS4A protein by enzyme-linked immunosorbent assay (ELISA) and by luciferase assay as described below:
The HCV replicon assay measures the ability of a test compound to inhibit HCV replication in cell culture after 3 days of treatment in a human hepatoma cell line (Huh-7) bearing the HCV genotype 1b replicon (GS4.1 cells). The inhibition of HCV replication was measured by quantification of viral NS4A protein using an enzyme-linked immunosorbent assay (ELISA). […] Additionally, the replicon contains the neomycin phosphotransferase gene under the control of the HCV promoter (Source: Dr. Christoph Seeger, Fox Chase Cancer Center, Philadelphia, Pa.).
as §2, with “The NS4A ELISA” for “The luciferase replicon”, “as follows. Ninety-six-well” for “as follows: Solid white 96-well”, “plates” for “plates (BD Falcon)”, “with GS4.1” for “with Zluc”, “after GS4.1” for “after Zluc”, “each 2× concentrated” for “each 2×-concentrated”
The media/compound was then removed from the plates and cells were fixed with acetone:methanol, washed three times with a wash solution, and then blocked for 1 hour with 10% fetal bovine serum in a balanced salt solution. Cells were washed three times and incubated with an anti-hepatitis C NS4A monoclonal antibody (Virogen Corp.) for 2 hours at 37° C. […] The reaction was stopped with diluted sulfuric acid (Mallinckrodt Chemicals) and absorbance measured on a Victor^3V 1420 multilabel counter (Perkin Elmer). EC50 values were calculated from dose response curves from the resulting best-fit equations determined by Microsoft Excel and XLfit 4.1 software.

[5] = Cytotoxicity (MTS assay), 184R-A cells; format: cell-based; details: human, 184R-A cells (S282T), 184R-A (S282T), N = 3
Experimental: (§3) Cells were plated and treated with inhibitors as described above.

[6] = system: HCV genotype 1b replicon (GS4.1 cells); experiment: In vitro combination of Compound 1 and ribavirin on HCV replicon (NS4A ELISA; MacSynergy II, CombiTool, CalcuSyn); format: cell-based; details: Hepatitis C virus, 72 h, single-drug titration experiments, three days
Experimental: This setup was run in duplicate in each 96-well plate.
Cells were incubated with inhibitors for three days at 37° C./5% CO2.
After three days of drug treatment, media was removed from the plates via gentle tapping and the cells were fixed to the plates with 100 μL/well of 1:1 acetone:methanol.
After one minute of incubation at room temperature, plates were washed three times with 100 μL/well of ELISA wash solution and then blocked with 150 μL/well of 10% FBS-TNE.
After a one hour incubation period at 37° C., each plate was washed three times with 100 μL/well of ELISA wash solution. Color development was then initiated with 100 μL/well of OPD solution.
After a 30 minute incubation period in the dark at room temperature, reactions were stopped by adding 100 μL of 2NH2SO4 to each well.
The absorbance was measured at 490 nm on a Victor^3 V 1420 multilabel counter (Perkin Elmer).

[7] = system: S282T HCV replicon (184R-A cells); experiment: microbe, parasite or virus in culture; details: Hepatitis C virus
Experimental: 3. The 184R-A cell line was derived by culturing wild-type replicon cells in the presence of 1 to 5 μM of Compound 1 for >100 days.
(§4) 1. […] Huh-7 cells were seeded into column 1 of each plate at a similar density.
(§5) 2. […] Eight additional 3-fold serial dilutions of each compound were prepared from the 2× stock in assay medium. Final drug concentrations ranged from 100 to 0.015 μM.
(§6) 3. […] This setup was run in duplicate in each 96-well plate.
(§7) 4. Cells were incubated with inhibitors for three days at 37° C./5% CO2.
(§8) 1. After three days of drug treatment, media was removed from the plates via gentle tapping and the cells were fixed to the plates with 100 μL/well of 1:1 acetone:methanol.
(§9) 2. After one minute of incubation at room temperature, plates were washed three times with 100 μL/well of ELISA wash solution and then blocked with 150 μL/well of 10% FBS-TNE.
(§10) 3. After a one hour incubation at room temperature, plates were washed three times with 100 μL/well of ELISA wash solution, and then 100 μL/well of mouse anti-hepatitis C […] mAb (1 mg/mL stock diluted 1:1,500 in 10% FBS-TNE) was added.
(§11) 4. Following 2 hours of incubation at 37° C., plates were washed three times with 100 μL/well of ELISA wash solution, and then 100 μL/well of HRP-goat anti-mouse antibody (diluted 1:4,000 in 10% FBS-TNE) was added.
(§12) 4. After a one hour incubation period at 37° C., each plate was washed three times with 100 μL/well of ELISA wash solution. Color development was then initiated with 100 μL/well of OPD solution.
(§13) 5. After a 30 minute incubation period in the dark at room temperature, reactions were stopped by adding 100 μL of 2NH2SO4 to each well.
(§14) 6. The absorbance was measured at 490 nm on a Victor^3 V 1420 multilabel counter (Perkin Elmer). The percent inhibition of HCV replicon replication was calculated for each drug using an average of the duplicate wells.

[8] = system: GS4.1 cells; experiment: Cytotoxicity of Compound 1 and RBV on GS4.1 cells using MTS assay (combination study); details: three days, 0.6× to 1.5× EC50, alone or in combination
Experimental: The readout of the assay was measured by the bioreduction of the yellow MTS tetrazolium compound to a purple formazan product. This conversion is mediated by NADPH or NADH in metabolically active cells and is therefore directly proportional to the number of live cells in a culture. Plates were setup as described above.
Cells were plated and treated with inhibitors using the drug matrix described above.
After three days of drug treatment, 20 μL of MTS was added to each well, and then plates were incubated at 37° C./5% CO2.

[9] = system: S282T HCV replicon (184R-D2 cells); experiment: microbe, parasite or virus in culture; details: Hepatitis C virus
Experimental: as §4, §5, §6, §7, §8, §9, §10, §11, §12, §13, §14

[10] = system: wild-type HCV replicon (GS4.1 cells); experiment: microbe, parasite or virus in culture; details: Hepatitis C virus
Experimental: as §4, §5, §6, §7, §8, §9, §10, §11, §12, §13, §14

[11] = system: GS4.1 cells; experiment: Cytotoxicity (MTS assay), GS4.1 cells, Example 18; format: cell-based, human; details: wild-type or S282T replicon cells treated with up to 100 μM
Experimental: as §3

[12] = Cytotoxicity (MTS assay), GS4.1 cells, Example 18; format: cell-based, human; details: human, GS4.1 cells (wild-type); GS4.1 (wild-type), MTS assay, N = 3
Experimental: as §3

[13] = Cytotoxicity (MTS assay), 184R-D2 cells; format: cell-based; details: human, 184R-D2 cells (S282T), 184R-D2 (S282T), N = 3
Experimental: as §3

Compound | CC50 [1] [µM] | EC50 [2] [µM] | CC50 [3] [µM] | EC50 [4] [µM] | CC50 at 3 days [5] [µM] | EC50 [6] [µM] | EC50 [7] [µM] | in vitro cytotoxicity (MTS) [8] | EC50 [9] [µM] | EC50 [10] [µM] | in vitro cytotoxicity (MTS) [11] | CC50 at 3 days [12] [µM] | CC50 at 3 days [13] [µM]
CC(C)(CO)C(=O)SCCOP(=O)(NCc1ccccc1)OC[C@H]1O[C@@H](n2cnc3c(=O)[nH]c(N)nc32)[C@](C)(O)[C@@H]1O (single isomer, unassigned; diastereomer 2) [Diastereomer 2] | > 100 | 0.0568 ± 0.0006 | > 100 | 0.244 ± 0.098 | – | – | – | – | – | – | – | – | –
NC(=O)c1ncn([C@@H]2O[C@H](CO)[C@@H](O)[C@H]2O)n1 [RBV, ribavirin, reference compound] | – | – | – | – | > 100 | 21.8 ± 3.6 | 12.3 ± 1.9 | no evidence of in vitro cytotoxicity | 17 ± 3.5 | 38 ± 2.8 | no evidence of in vitro cytotoxicity | > 100 | > 100
